Article PMC5218480 (PLoS ONE, 2017)

System: MV-4-11 cells
Test: Gene expression microarray analysis (Affymetrix PrimeView) and GSEA
Format: cell-based, human
Set-up: RFU PODN (11730768_x_at) / Fold change /veh PODN (11730768_x_at) / RFU LINC00158 (11744669_a_at) / Fold change /veh LINC00158 (11744669_a_at) / RFU DUSP10 (11751237_a_at) / Fold change /veh DUSP10 (11751237_a_at) / RFU ID3 (11757404_x_at) / Fold change /veh ID3 (11757404_x_at) / RFU PLEKHG5 (11737974_s_at) / Fold change /veh PLEKHG5 (11737974_s_at) / RFU LRRC4B (11730491_at) / Fold change /veh LRRC4B (11730491_at) / RFU GIMAP4 (11747438_a_at) / Fold change /veh GIMAP4 (11747438_a_at) / RFU KRT8 (11758183_x_at) / Fold change /veh KRT8 (11758183_x_at) / RFU CNN1 (11734310_a_at) / Fold change /veh CNN1 (11734310_a_at) / RFU VPS37D (11726825_at) / Fold change /veh VPS37D (11726825_at) / RFU C10orf10 (11716522_x_at) / Fold change /veh C10orf10 (11716522_x_at) / RFU KIR2DL2 /// KIR2DL4 /// KIR2DL5A /// KIR2DL5B /// KIR2DS1 /// KIR2DS2 /// KIR2DS3 /// KIR2DS4 /// KIR3DL3 /// KIR3DL3 /// KIR3DS1 (11738374_at) / Fold change /veh KIR2DL2 /// KIR2DL4 /// KIR2DL5A /// KIR2DL5B /// KIR2DS1 /// KIR2DS2 /// KIR2DS3 /// KIR2DS4 /// KIR3DL3 /// KIR3DL3 /// KIR3DS1 (11738374_at) / RFU C1QL1 (11718748_at) / Fold change /veh C1QL1 (11718748_at) / RFU TMPRSS4 (11747572_a_at) / Fold change /veh TMPRSS4 (11747572_a_at) / RFU HAMP (11756126_x_at) / Fold change /veh HAMP (11756126_x_at) / RFU RNFT2 (11725882_a_at) / Fold change /veh RNFT2 (11725882_a_at) / RFU NR4A2 (11747474_a_at) / Fold change /veh NR4A2 (11747474_a_at) / RFU ABCC12 (11746883_a_at) / Fold change /veh ABCC12 (11746883_a_at) / RFU TMEM136 (11760407_x_at) / Fold change /veh TMEM136 (11760407_x_at) / RFU CLDN22 /// WWC2 (11732394_at) / Fold change /veh CLDN22 /// WWC2 (11732394_at) / RFU HLA-DPB1 (11760878_x_at) / Fold change /veh HLA-DPB1 (11760878_x_at) / RFU SPINT1 (11716480_a_at) / Fold change /veh SPINT1 (11716480_a_at) / RFU GAP43 (11754022_s_at) / Fold change /veh GAP43 (11754022_s_at) / RFU A4GNT (11735810_at) / Fold change /veh A4GNT (11735810_at) / RFU PRB3 (11715151_x_at) / Fold change /veh PRB3 (11715151_x_at) / RFU TUBB4B (11761932_at) / Fold change /veh TUBB4B (11761932_at) / RFU CAPN14 (11732068_a_at) / Fold change /veh CAPN14 (11732068_a_at) / RFU TMCC2 (11721928_a_at) / Fold change /veh TMCC2 (11721928_a_at) / RFU IRGQ (11745062_a_at) / Fold change /veh IRGQ (11745062_a_at) / RFU FAM174B (11720279_a_at) / Fold change /veh FAM174B (11720279_a_at) / RFU TMPRSS4 (11748680_a_at) / Fold change /veh TMPRSS4 (11748680_a_at) / RFU FAM212B (11763350_a_at) / Fold change /veh FAM212B (11763350_a_at) / RFU PLEKHG5 (11743358_a_at) / Fold change /veh PLEKHG5 (11743358_a_at) / RFU ZSCAN30 (11745921_a_at) / Fold change /veh ZSCAN30 (11745921_a_at) / RFU CMKLR1 (11741424_a_at) / Fold change /veh CMKLR1 (11741424_a_at) / RFU LOC101060620 /// MAPK8IP1 (11723275_at) / Fold change /veh LOC101060620 /// MAPK8IP1 (11723275_at) / RFU SPTSSB (11747773_x_at) / Fold change /veh SPTSSB (11747773_x_at) / RFU PRSS12 (11739890_at) / Fold change /veh PRSS12 (11739890_at) / RFU BIN1 (11741810_x_at) / Fold change /veh BIN1 (11741810_x_at) / RFU WNT11 (11732464_a_at) / Fold change /veh WNT11 (11732464_a_at) / RFU C10orf10 (11716521_a_at) / Fold change /veh C10orf10 (11716521_a_at) / RFU C5orf56 (11738089_at) / Fold change /veh C5orf56 (11738089_at) / RFU CYB561 (11721691_x_at) / Fold change /veh CYB561 (11721691_x_at) / RFU ANKRD19P (11752326_a_at) / Fold change /veh ANKRD19P (11752326_a_at) / RFU OR2T12 /// OR2T33 /// OR2T8 (11738714_s_at) / Fold change /veh OR2T12 /// OR2T33 /// OR2T8 (11738714_s_at) / RFU VCAN (11748164_a_at) / Fold change /veh VCAN (11748164_a_at) / RFU JSRP1 (11732532_at) / Fold change /veh JSRP1 (11732532_at) / RFU KRTAP10-11 (11738290_x_at) / Fold change /veh KRTAP10-11 (11738290_x_at) / RFU MYO3A (11730013_a_at) / Fold change /veh MYO3A (11730013_a_at) / RFU EBF3 (11725865_a_at) / Fold change /veh EBF3 (11725865_a_at) / RFU CAMK2N1 (11719241_x_at) / Fold change /veh CAMK2N1 (11719241_x_at) / RFU C5orf56 (11738088_a_at) / Fold change /veh C5orf56 (11738088_a_at) / RFU OLFML3 (11715873_a_at) / Fold change /veh OLFML3 (11715873_a_at) / RFU LOC100653217 /// NTM (11731650_a_at) / Fold change /veh LOC100653217 /// NTM (11731650_a_at) / RFU MAPK11 (11762145_a_at) / Fold change /veh MAPK11 (11762145_a_at) / RFU FIZ1 (11724087_x_at) / Fold change /veh FIZ1 (11724087_x_at) / RFU OASL (11726364_x_at) / Fold change /veh OASL (11726364_x_at) / RFU SOX15 (11748057_x_at) / Fold change /veh SOX15 (11748057_x_at) / RFU CD79A (11719716_a_at) / Fold change /veh CD79A (11719716_a_at) / RFU HIST1H1D (11736915_at) / Fold change /veh HIST1H1D (11736915_at) / RFU CASKIN2 (11723855_a_at) / Fold change /veh CASKIN2 (11723855_a_at) / RFU LOC730098 (11760151_x_at) / Fold change /veh LOC730098 (11760151_x_at) / RFU OR4N2 (11742367_at) / Fold change /veh OR4N2 (11742367_at) / RFU PRRT2 (11749266_a_at) / Fold change /veh PRRT2 (11749266_a_at) / RFU SNX32 (11753110_a_at) / Fold change /veh SNX32 (11753110_a_at) / RFU CDHR5 (11726645_a_at) / Fold change /veh CDHR5 (11726645_a_at) / RFU RCAN1 (11760418_a_at) / Fold change /veh RCAN1 (11760418_a_at) / RFU FAM167A (11723789_a_at) / Fold change /veh FAM167A (11723789_a_at) / RFU FAM26E (11764081_at) / Fold change /veh FAM26E (11764081_at) / RFU ISYNA1 (11749810_s_at) / Fold change /veh ISYNA1 (11749810_s_at) / RFU ACY1 (11761880_at) / Fold change /veh ACY1 (11761880_at) / RFU 11764098_at / Fold change /veh 11764098_at / RFU SAMD14 (11745864_x_at) / Fold change /veh SAMD14 (11745864_x_at) / RFU NPB (11741838_a_at) / Fold change /veh NPB (11741838_a_at) / RFU TMPRSS6 (11731388_a_at) / Fold change /veh TMPRSS6 (11731388_a_at) / RFU KRTAP10-2 (11738614_at) / Fold change /veh KRTAP10-2 (11738614_at) / RFU ARHGAP8 /// PRR5-ARHGAP8 (11727945_x_at) / Fold change /veh ARHGAP8 /// PRR5-ARHGAP8 (11727945_x_at) / RFU KRTAP5-7 /// NADSYN1 (11734609_at) / Fold change /veh KRTAP5-7 /// NADSYN1 (11734609_at) / RFU RASL12 (11751679_a_at) / Fold change /veh RASL12 (11751679_a_at) / RFU CDKN2B (11736163_a_at) / Fold change /veh CDKN2B (11736163_a_at) / RFU PRF1 (11729649_at) / Fold change /veh PRF1 (11729649_at) / RFU, ZNF638 /// ZNF638-IT1 / Fold change vs veh, ZNF638 /// ZNF638-IT1 / RFU, PANK3 / Fold change vs veh, PANK3 / RFU, SH3YL1 / Fold change vs veh, SH3YL1 / RFU, ZEB2 / Fold change vs veh, ZEB2 / RFU, NRIP1 / Fold change vs veh, NRIP1 / RFU, PTTG1IP / Fold change vs veh, PTTG1IP / RFU, CAPN2 / Fold change vs veh, CAPN2 / RFU, MED14 / Fold change vs veh, MED14 / RFU, SNORA58 / Fold change vs veh, SNORA58 / RFU, C1orf63 / Fold change vs veh, C1orf63 / RFU, LRRFIP1 / Fold change vs veh, LRRFIP1 / RFU, NDUFAF7 / Fold change vs veh, NDUFAF7 / RFU, SLC12A2 / Fold change vs veh, SLC12A2 / RFU, IBTK / Fold change vs veh, IBTK / RFU, ESF1 / Fold change vs veh, ESF1 / Fold change vs veh, TMEM50B / RFU, TAOK1 / Fold change vs veh, TAOK1 / RFU, ACBD3 / Fold change vs veh, ACBD3 / RFU, TMA16 / Fold change vs veh, TMA16 / RFU, RWDD3 / Fold change vs veh, RWDD3 / RFU, BCAT1 / Fold change vs veh, BCAT1 / RFU, EDEM3 / Fold change vs veh, EDEM3 / RFU, TMEM33 / Fold change vs veh, TMEM33 / RFU, WDR75 / Fold change vs veh, WDR75 / RFU, AHCTF1 / Fold change vs veh, AHCTF1 / RFU, TFRC / Fold change vs veh, TFRC / RFU, ZDHHC17 / Fold change vs veh, ZDHHC17 / RFU, NOM1 / Fold change vs veh, NOM1 / RFU, ARL8B / Fold change vs veh, ARL8B / RFU, ZBTB11 / Fold change vs veh, ZBTB11 / RFU, TAMM41 / Fold change vs veh, TAMM41 / RFU, KIAA1704 /// LOC100996395 / Fold change vs veh, KIAA1704 /// LOC100996395 / RFU, ING1 / Fold change vs veh, ING1 / RFU, TRMT61B / Fold change vs veh, TRMT61B / RFU, FUBP3 / Fold change vs veh, FUBP3 / RFU, TP53 / Fold change vs veh, TP53 / RFU, TNKS2 / Fold change vs veh, TNKS2 / RFU, ZFP14 / Fold change vs veh, ZFP14 / RFU, ACTR2 / Fold change vs veh, ACTR2 / RFU, PPP3R1 / Fold change vs veh, PPP3R1 / RFU, PIK3R1 / Fold change vs veh, PIK3R1 / RFU, HNRNPA1 / Fold change vs veh, HNRNPA1 / RFU, RNF170 / Fold change vs veh, RNF170 / RFU, ZNF28 / Fold change vs veh, ZNF28 / RFU, RNGTT / Fold change vs veh, RNGTT / RFU, OGT / Fold change vs veh, OGT / RFU, BRD1 / Fold change vs veh, BRD1 / RFU, MARS / Fold change vs veh, MARS / RFU, ZNF655 / Fold change vs veh, ZNF655 / RFU, FAHD1 / Fold change vs veh, FAHD1 / RFU, BDP1 / Fold change vs veh, BDP1 / RFU, LRRCC1 / Fold change vs veh, LRRCC1 / RFU, ARID1A / Fold change vs veh, ARID1A / RFU, ZNF146 / Fold change vs veh, ZNF146 / RFU, ZNF330 / Fold change vs veh, ZNF330 / RFU, GPN3 / Fold change vs veh, GPN3 / RFU, C9orf123 / Fold change vs veh, C9orf123 / RFU, N4BP2L2 / Fold change vs veh, N4BP2L2 / RFU, ARFIP1 / Fold change vs veh, ARFIP1 / RFU, FAM179B / Fold change vs veh, FAM179B / RFU, BCL10 / Fold change vs veh, BCL10 / RFU, UHRF1BP1L / Fold change vs veh, UHRF1BP1L / RFU, BET1 / Fold change vs veh, BET1 / RFU, CNOT2 / Fold change vs veh, CNOT2 / RFU, ZNF268 / Fold change vs veh, ZNF268 / Fold change vs veh, ZNF507 / RFU, DGCR2 / Fold change vs veh, DGCR2 / RFU, WDSUB1 / Fold change vs veh, WDSUB1 / Fold change vs veh, HSP90B1 /// MIR3652 / RFU, ADSS / Fold change vs veh, ADSS / RFU, GK / Fold change vs veh, GK / RFU, ZNF148 / Fold change vs veh, ZNF148 / RFU, TAF9 / Fold change vs veh, TAF9 / RFU, SLC1A5 / Fold change vs veh, SLC1A5 / RFU, SLMO2 / Fold change vs veh, SLMO2 / RFU, ABCC4 / Fold change vs veh, ABCC4 / RFU, LOC101060439 /// RAP1B / Fold change vs veh, LOC101060439 /// RAP1B / RFU, RFX7 / Fold change vs veh, RFX7 / RFU, GTPBP10 / Fold change vs veh, GTPBP10 / RFU, CNEP1R1 / Fold change vs veh, CNEP1R1 / RFU, BIVM-ERCC5 /// ERCC5 / Fold change vs veh, BIVM-ERCC5 /// ERCC5 / RFU, ILF3 / Fold change vs veh, ILF3 / RFU 11762660_at / Fold change /veh 11762660_at / RFU VCAN (11757783_s_at) / Fold change /veh VCAN (11757783_s_at) / RFU DDX43 (11728927_at) / Fold change /veh DDX43 (11728927_at) / RFU KRT8 (11758188_x_at) / Fold change /veh KRT8 (11758188_x_at) / RFU NKD1 (11759106_at) / Fold change /veh NKD1 (11759106_at) / RFU SRD5A1 (11742802_a_at) / Fold change /veh SRD5A1 (11742802_a_at) / RFU TPSAB1 /// TPSB2 (11721975_s_at) / Fold change /veh TPSAB1 /// TPSB2 (11721975_s_at) / RFU GSTM3 (11746129_a_at) / Fold change /veh GSTM3 (11746129_a_at) / RFU IL23R (11737362_x_at) / Fold change /veh IL23R (11737362_x_at) / RFU TMEM51 (11727254_a_at) / Fold change /veh TMEM51 (11727254_a_at) / RFU PIWIL2 (11732686_x_at) / Fold change /veh PIWIL2 (11732686_x_at) / RFU ORM1 (11744905_x_at) / Fold change /veh ORM1 (11744905_x_at) / RFU CCDC152 (11743942_at) / Fold change /veh CCDC152 (11743942_at) / RFU ECM1 (11717891_a_at) / Fold change /veh ECM1 (11717891_a_at) / RFU IL23R (11748794_a_at) / Fold change /veh IL23R (11748794_a_at) / RFU TNFAIP8L3 (11732012_x_at) / Fold change /veh TNFAIP8L3 (11732012_x_at) / RFU MBOAT4 (11741988_at) / Fold change /veh MBOAT4 (11741988_at) / RFU 11764193_at / Fold change /veh 11764193_at / RFU TMEM53 (11763286_at) / Fold change /veh TMEM53 (11763286_at) / RFU MAGEB2 (11727129_at) / Fold change /veh MAGEB2 (11727129_at) / RFU TMEM200A (11744735_a_at) / Fold change /veh TMEM200A (11744735_a_at) / RFU CCDC152 (11751479_a_at) / Fold change /veh CCDC152 (11751479_a_at) / RFU FAM211A (11726209_a_at) / Fold change /veh FAM211A (11726209_a_at) / RFU RGS16 (11746705_a_at) / Fold change /veh RGS16 (11746705_a_at) / RFU VCAN (11755009_s_at) / Fold change /veh VCAN (11755009_s_at) / RFU RHOB (11743442_s_at) / Fold change /veh RHOB (11743442_s_at) / RFU RGS16 (11720943_a_at) / Fold change /veh RGS16 (11720943_a_at) / RFU RGS16 (11720944_at) / Fold change /veh RGS16 (11720944_at) / RFU, VPS4B / Fold change vs veh, VPS4B / RFU, CREB1 / Fold change vs veh, CREB1 / RFU, DNAJC13 / Fold change vs veh, DNAJC13 / RFU, GNAQ / Fold change vs veh, GNAQ / RFU, CDK5R1 / Fold change vs veh, CDK5R1 / RFU, ZRANB3 / Fold change vs veh, ZRANB3 / RFU, CUL4A / Fold change vs veh, CUL4A / RFU, CCNY / Fold change vs veh, CCNY / RFU, UFL1 / Fold change vs veh, UFL1 / RFU, COG3 / Fold change vs veh, COG3 / RFU, DIAPH2 / Fold change vs veh, DIAPH2 / RFU, SKA2 / Fold change vs veh, SKA2 / RFU, AFF3 / Fold change vs veh, AFF3 / RFU, LMF1 / Fold change vs veh, LMF1 / RFU, IPO11 / Fold change vs veh, IPO11 / RFU, DFFB / Fold change vs veh, DFFB / RFU, FOXP1 / Fold change vs veh, FOXP1 / RFU, CARD8 / Fold change vs veh, CARD8 / RFU, STRN3 / Fold change vs veh, STRN3 / RFU, ADK / Fold change vs veh, ADK / RFU, RASSF2 / Fold change vs veh, RASSF2 / RFU, WIPF1 / Fold change vs veh, WIPF1 / RFU, LARP1B / Fold change vs veh, LARP1B / RFU, RASA1 / Fold change vs veh, RASA1 / RFU, RB1 / Fold change vs veh, RB1 / RFU, PPFIA1 / Fold change vs veh, PPFIA1 / RFU, MAT2A / Fold change vs veh, MAT2A / RFU, CCT5 / Fold change vs veh, CCT5 / RFU, WDR92 / Fold change vs veh, WDR92 / RFU, CUX1 / Fold change vs veh, CUX1 / RFU, TTC7A / Fold change vs veh, TTC7A / RFU, TMEM135 / Fold change vs veh, TMEM135 / RFU, DEPTOR / Fold change vs veh, DEPTOR / RFU, CPM / Fold change vs veh, CPM / RFU, DNAJB6 / Fold change vs veh, DNAJB6 / RFU, CACNA2D3 / Fold change vs veh, CACNA2D3 / RFU, DTX4 / Fold change vs veh, DTX4 / RFU, TFCP2 / Fold change vs veh, TFCP2 / RFU, GMCL1 /// GMCL1P1 / Fold change vs veh, GMCL1 /// GMCL1P1 / RFU, AEBP2 / Fold change vs veh, AEBP2 / RFU, SNHG1 /// SNORD22 /// SNORD25 /// SNORD26 /// SNORD27 /// SNORD28 /// SNORD29 /// SNORD31 / Fold change vs veh, SNHG1 /// SNORD22 /// SNORD25 /// SNORD26 /// SNORD27 /// SNORD28 /// SNORD29 /// SNORD31 / Fold change (Aza/veh), C12orf56 (ProbeSet 11735607_a_at) / Fold change (ACY-1035/veh), C12orf56 (ProbeSet 11735607_a_at) / Fold change (Aza/veh), FGFR1OP (ProbeSet 11751329_s_at) / Fold change (ACY-1035/veh), FGFR1OP (ProbeSet 11751329_s_at) / Fold change (Aza/veh), VPS36 (ProbeSet 11739960_a_at) / Fold change (ACY-1035/veh), VPS36 (ProbeSet 11739960_a_at) / RFU SYPL1 (11715823_x_at) / Fold change /veh SYPL1 (11715823_x_at) / RFU IGFBP7 (11715501_s_at) / Fold change /veh IGFBP7 (11715501_s_at) / RFU REEP3 (11722064_at) / Fold change /veh REEP3 (11722064_at) / RFU IGLL1 (11728026_x_at) / Fold change /veh IGLL1 (11728026_x_at): dose or concentration left out as unconfirmed
Conditions: ProbeSet 11757268_x_at; LIST B

How did the “RFU, HNRNPA1” value turn out when `Nc1ccc(-c2cccs2)cc1NC(=O)c1ccc2c(c1)cc(C1CC1)n2CCN1CCOCC1` [ACY-1035] was run?
The value was 4786.54 RFU.
